Results published in publication PMC11435065, “Inhibition of P-Glycoprotein Asymmetrically Alters the In Vivo Exposure Profile of SGC003F: A Novel Guanylate Cyclase Stimulator” (Pharmaceuticals, 2024).
Like-named read-outs stand apart in the source and are kept apart here.

Tests used:
Format in all cases: in vitro ADME
[1] = Bidirectional transport across Caco-2 monolayer cells; details: human, Caco-2 cells, read-out: ER value (efflux ratio)
Protocol: (§1) LLC-PK1-MDR1, LLC-PK1-MOCK, and Caco-2 cells were seeded in 24-well Transwell cell plates at optimized densities. The medium was changed every other day for the LLC-PK1 cells and every day for the Caco-2 cells. The LLC-PK1 cells were cultured continuously for 4–7 days, while the Caco-2 cells were cultured continuously for 28–35 days in preparation for transport experiments. Prior to the experiment, TEER (transepithelial electrical resistance) values were measured using a cell resistance meter. For electrical measurements, two electrodes were used, with one electrode placed in the upper compartment and the other in the lower compartment and the electrodes were separated by the cellular monolayer. The measurement procedure included measuring the blank resistance (Rblank) of the semipermeable membrane only (without cells) and measuring the resistance across the cell layer on the semipermeable membrane (Rtotal). TEER values were achieved by calculating as TEER = (Rtotal − Rblank) × Marea in the unit of Ω·cm^2. […]
(§2) The apparent permeability rate value (Papp) of the monolayer cells was calculated according to Equation (5) Papp = (dQ/dt)/(A × C0)(5) where dQ/dt is the transport rate (µmol·s^−1); A is the insert surface area (0.33 cm^2); C0 is the initial concentration of the compound (µM).
(§3) Efflux rate (ER) was calculated according to Equation (6):ER = Papp B-A/PappA-B(6)

[2] = target: T1, P-gp (human MDR1) (Homo sapiens, UniProt P08183); experiment: Bidirectional transport across LLC-PK1-MDR1 monolayer cells with or without tariquidar; details: for efflux ratio at 2 h, 2 µM: human, read-out: ER value (efflux ratio)
T1 construct: expressed in transfected cells; host or cells: LLC-PK1 cells stably expressing human MDR1 (gift of Professor Qingcheng Mao, University of Washington)
Source text: Cell lines: LLC-PK1 cells with stable-expressing human MDR1 and mock-transfected with empty vector (LLC-PK1-MOCK) were gifted by the lab of Professor Qingcheng Mao (University of Washington, Seattle, WA, USA). The culture medium of the LLC-PK1-MOCK and LLC-PK1-MDR1 cells was 1640 medium containing 10% FBS and 100 U/mL PS. The Caco-2 cells were purchased from ADCC. The Caco-2 cell culture medium was DMEM high-glucose medium (containing 10% FBS, 1% non-essential amino acid solution, 100 U/mL PS). Both cell lines were cultured at 37 °C in a cell incubator containing 5% CO2.
as §1, with “Ω·cm^2. The monolayer integrity was guaranteed by determining the TEER before and after the bidirectional transport experiments.” for “Ω·cm^2.”
as §2, §3

[3] = In vitro metabolic stability in rat liver microsomes; details: 1 µM, up to 60 min, NADPH or UDPGA
Protocol: (§4) In vitro incubation dependent on NADPH: SGC003F was added into rat and human liver microsomes diluted in PBS (100 mM, pH 7.3). NADPH was introduced into the system. The NADPH had been pre-equilibrated under the same conditions for 5 min to initiate the enzymatic reaction. The incubation mixture was meticulously prepared to achieve the following final concentrations: 1 µM for SGC003F, 0.5 mg/mL for the liver microsomal protein, and 1 mM for NADPH.
(§5) In vitro incubation dependent on UDPGA: rat and human liver microsomes diluted in PBS (100 mM, pH 7.3) were mixed with alamethicin and then placed on ice for 15 min before the addition of the working solution of SGC003F. After preincubation in a water bath at 37 °C for 5 min, UDPGA, which had been preincubated for 5 min was added to initiate the reaction. The final concentrations in the incubation system were as follows: 1 μM for SGC003F, 0.5 mg/mL for liver microsomal protein concentration, 5 mM for UDPGA, and 25 μg/mL for alamethicin.
(§6) Positive probe substrate assays were utilized to ensure normal activity of the incubation system. […] Finally, 60 μL supernatant was taken and diluted with 60 μL of 50% acetonitrile before being analyzed by LC-MS/MS.

[4] = In vitro metabolic stability in human liver microsomes; details: 1 µM, up to 60 min, NADPH or UDPGA
Protocol: as §4, §5, §6

T1 sequence (P08183 whole entry): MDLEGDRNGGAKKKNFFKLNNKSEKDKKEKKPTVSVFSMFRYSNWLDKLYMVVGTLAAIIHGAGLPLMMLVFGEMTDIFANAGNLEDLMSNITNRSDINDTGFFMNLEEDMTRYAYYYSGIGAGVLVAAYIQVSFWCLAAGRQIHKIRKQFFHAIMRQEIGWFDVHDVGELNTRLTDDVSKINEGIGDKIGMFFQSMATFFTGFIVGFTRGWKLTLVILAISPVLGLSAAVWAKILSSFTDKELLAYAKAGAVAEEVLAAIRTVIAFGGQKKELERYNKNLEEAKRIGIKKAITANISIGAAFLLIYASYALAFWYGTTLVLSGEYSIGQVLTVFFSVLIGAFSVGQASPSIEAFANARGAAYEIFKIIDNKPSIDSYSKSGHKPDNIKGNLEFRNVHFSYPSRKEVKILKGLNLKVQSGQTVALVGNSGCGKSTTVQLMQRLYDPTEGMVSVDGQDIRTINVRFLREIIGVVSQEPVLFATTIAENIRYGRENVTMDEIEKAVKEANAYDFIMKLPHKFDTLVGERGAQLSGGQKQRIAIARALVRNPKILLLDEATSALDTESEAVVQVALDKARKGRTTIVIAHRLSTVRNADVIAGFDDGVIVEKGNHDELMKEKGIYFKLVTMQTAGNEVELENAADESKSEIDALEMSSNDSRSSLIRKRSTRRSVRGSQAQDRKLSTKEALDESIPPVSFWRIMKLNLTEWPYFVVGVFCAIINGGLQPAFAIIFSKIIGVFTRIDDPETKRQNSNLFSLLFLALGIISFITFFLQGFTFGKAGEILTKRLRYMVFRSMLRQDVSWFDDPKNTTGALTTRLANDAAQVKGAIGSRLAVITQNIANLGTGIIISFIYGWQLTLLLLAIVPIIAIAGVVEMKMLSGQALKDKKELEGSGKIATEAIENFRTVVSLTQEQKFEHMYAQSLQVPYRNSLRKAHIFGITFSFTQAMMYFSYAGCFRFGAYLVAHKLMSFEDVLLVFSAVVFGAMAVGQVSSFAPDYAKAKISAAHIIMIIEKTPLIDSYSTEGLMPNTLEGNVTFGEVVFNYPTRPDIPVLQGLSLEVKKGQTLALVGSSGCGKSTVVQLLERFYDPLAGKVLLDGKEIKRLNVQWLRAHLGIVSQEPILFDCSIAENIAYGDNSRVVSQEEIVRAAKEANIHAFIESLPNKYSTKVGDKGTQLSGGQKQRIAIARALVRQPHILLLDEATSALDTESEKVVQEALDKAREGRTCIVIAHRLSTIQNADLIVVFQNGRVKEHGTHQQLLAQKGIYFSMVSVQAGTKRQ

- efflux ratio at 2 h, 2 µM [1]: 7.2
- P-gp substrate assessment ([2]; LLC-PK1-MDR1 vs LLC-PK1-MOCK, with/without tariquidar): substrate for P-gp
- efflux ratio at 2 h, 2 µM ([2]; LLC-PK1, LLC-PK1-MDR1 cells, without tariquidar): 6.71
- efflux ratio at 2 h, 2 µM ([2]; LLC-PK1, with tariquidar 5 µM, LLC-PK1-MDR1 cells, with tariquidar 5 µM): 1.28
- Metabolic stability (percentage of drug remaining over time) [3]: no significant metabolic elimination
- Metabolic stability (percentage of drug remaining over time) [4]: no significant metabolic elimination
SMILES: COC(=O)Nc1c(N)nc(-c2nn(Cc3sccc3F)c3ncc(F)cc23)nc1N [SGC003F]
